# Assays:
# [1] = tested on: Claudin-1; experiment: Claudin-1 expression in OGD/R-stimulated HBMVECs (real-time PCR, western blot); assay type: cell-based, human; settings: for Claudin-1 expressions (mRNA): sh-C/EBP-α experiment, Fig. 9D
# Method: (§1) 1 mL of RNAiso Plus solution was added to the pulverized rodent cerebral cortex samples or cellular material. Following complete homogenization, the liquid fraction was extracted after high-speed centrifugation. The overall RNA pellet was then washed with 75% ethanol, and the RNA was subsequently harvested for reverse transcription. These specific procedures were carried out in accordance with the instructions provided in the PrimeScript RT reagent Kit (TaKaRa, Japan). Real-time PCR detection was performed following the experimental protocols of the Applied Biosystems 7300 instrument. Gene expression levels were determined based on cycle threshold counts. Claudin-1 and C/EBP-α were analyzed in brain homogenates (right hemisphere: Sham, MCAO, MCAO + TZP) and HBMVECs (Control, […] lysis solution, composed of 1% protease inhibitor in RIPA buffer (Sigma-Aldrich, R0278), was introduced to samples, which were homogenized over ice for 30 min. The homogenate was centrifuged at 13,500 rpm for 10 min at 4 °C. Protein was quantified using the BCA assay kit (Sigma-Aldrich, BCA1), and 50 μg protein/lane was separated on 10% SDS-PAGE and transferred to PVDF in electrophoresis buffer at 200 mA for 2 h. The membrane was blocked with 5% skim milk in TBST for 1 h. Primary antibodies were incubated overnight at 4 °C: Claudin-1 (1:1000, Abcam, ab15098), C/EBP-α (1:1000, Santa Cruz Biotechnology, sc-166258), and GAPDH (1:2000, Sigma-Aldrich, A5441). HRP-conjugated secondary antibodies (1:5000, Santa Cruz, sc-2357) were incubated for 1 h. Bands were detected via ECL (Bio-Rad, 1705061), quantified with ImageJ, and normalized to GAPDH. HBMVECs were sourced from ATCC (USA). These cells were cultivated in a medium specifically designed for endothelial cultures, enriched with 10% FBS, and maintained in an incubator set at a temperature of 37 °C with 5% CO2. For OGD/R modeling, the culture medium was replaced with a serum-free, glucose-free medium, and then it was placed in a hypoxic environment (1% O2, 5% CO2, 94% N2) at a 37 °C incubator for 10 h. […]
# [2] = tested on: Claudin-1; experiment: Claudin-1 expression in mouse cortex (RT-PCR, immunostaining); assay type: in vivo; settings: for Claudin-1 levels (mRNA): C/EBP-α experiment, Fig. 5C; for Claudin-1 expressions in cortex tissue (mRNA, protein by immunostaining): Fig. 3A, B
# Method: Mouse brain cortex samples were traditionally fixed in a 10% formaldehyde solution, embedded in paraffin, sectioned, and then dehydrated. Endogenous peroxidase activity was quenched by incubating the sections with a 3% hydrogen peroxide solution for 30 min. Antigen retrieval was carried out using ethylenediaminetetraacetic acid (EDTA) under pressure. After sealing for 30 min, slides were incubated overnight at 4 °C with primary antibodies specific for Claudin-1 (Abcam, USA), diluted at a ratio of 1:400. This incubation period was extended to ensure thorough binding. Subsequently, the slides were washed and incubated with secondary antibodies (1:400, Abcam, USA) for 15 min. Finally, the slides were developed using a DAB chromogenic substrate system, counterstained with hematoxylin, differentiated with an ethanol solution containing hydrochloric acid, subjected to a bluing step with running tap water, rinsed with deionized water, dehydrated, and covered with a protective cover slip. Visual documentation was obtained using a microscope (Zeiss, Germany). 1 mL of RNAiso Plus solution was added to the pulverized rodent cerebral cortex samples or cellular material. Following complete homogenization, the liquid fraction was extracted after high-speed centrifugation. The overall RNA pellet was then washed with 75% ethanol, and the RNA was subsequently harvested for reverse transcription. These specific procedures were carried out in accordance with the instructions provided in the PrimeScript RT reagent Kit (TaKaRa, Japan). Real-time PCR detection was performed following the experimental protocols of the Applied Biosystems 7300 instrument. Gene expression levels were determined based on cycle threshold counts.
# [3] = tested on: C/EBP-α; experiment: C/EBP-α expression in mouse cortex (RT-PCR, western blot); assay type: in vivo; settings: Fig. 4A, B
# Method: 1 mL of RNAiso Plus solution was added to the pulverized rodent cerebral cortex samples or cellular material. Following complete homogenization, the liquid fraction was extracted after high-speed centrifugation. The overall RNA pellet was then washed with 75% ethanol, and the RNA was subsequently harvested for reverse transcription. These specific procedures were carried out in accordance with the instructions provided in the PrimeScript RT reagent Kit (TaKaRa, Japan). Real-time PCR detection was performed following the experimental protocols of the Applied Biosystems 7300 instrument. Gene expression levels were determined based on cycle threshold counts.
# Claudin-1 and C/EBP-α were analyzed in brain homogenates (right hemisphere: Sham, MCAO, MCAO + TZP) and HBMVECs (Control, OGD/R, OGD/R + TZP). A lysis solution, composed of 1% protease inhibitor in RIPA buffer (Sigma-Aldrich, R0278), was introduced to samples, which were homogenized over ice for 30 min. The homogenate was centrifuged at 13,500 rpm for 10 min at 4 °C. Protein was quantified using the BCA assay kit (Sigma-Aldrich, BCA1), and 50 µg protein/lane was separated on 10% SDS-PAGE and transferred to PVDF in electrophoresis buffer at 200 mA for 2 h. The membrane was blocked with 5% skim milk in TBST for 1 h. […] Bands were detected via ECL (Bio-Rad, 1705061), quantified with ImageJ, and normalized to GAPDH.
# [4] = tested on: C/EBP-α; experiment: C/EBP-α expression in OGD/R-stimulated HBMVECs (real-time PCR, western blot); assay type: cell-based, human; settings: OGD/R + 50 and 100 nM TZP vs. OGD/R, Fig. 8A, B
# Method: as §1, with “Primary antibodies were incubated overnight at 4 °C: Claudin-1 (1:1000, Abcam, ab15098), C/EBP-α (1:1000, Santa Cruz Biotechnology, sc-166258), and GAPDH (1:2000, Sigma-Aldrich, A5441). HRP-conjugated secondary antibodies (1:5000, Santa Cruz, sc-2357) were incubated for 1 h.” left out, “GAPDH.” for “GAPDH. HBMVECs were sourced from ATCC (USA). These cells were cultivated in a medium specifically designed for endothelial cultures, enriched with 10% FBS, and maintained in an incubator set at a temperature of 37 °C with 5% CO2. For OGD/R modeling, the culture medium was replaced with a serum-free, glucose-free medium, and then it was placed in a hypoxic environment (1% O2, 5% CO2, 94% N2) at a 37 °C incubator for 10 h.”
# [5] = tested on: MCAO mice; experiment: TTC staining, infarct volume in MCAO mice; assay type: in vivo, mouse; settings: MCAO + TZP mice, 10 nmol/kg i.p., MCAO mice 38.5 ± 4.2%, mean ± SD, Fig. 1B
# [6] = tested on: MCAO mice; experiment: Behavioral toxicity observation in the MCAO model; settings: TZP 10 nmol/kg i.p. weekly
# [7] = TZP group (sham-operated, 10 nmol/kg i.p. weekly, 8 weeks) vs. Sham
compound,measurement,setting,value
"CC[C@H](C)[C@H](NC(=O)[C@H](CC(C)C)NC(=O)[C@H](Cc1c[nH]c2ccccc12)NC(=O)[C@H](CCC(N)=O)NC(=O)[C@@H](NC(=O)[C@H](Cc1ccccc1)NC(=O)[C@H](C)NC(=O)[C@H](CCCCNC(=O)COCCOCCNC(=O)COCCOCCNC(=O)CC[C@H](NC(=O)CCCCCCCCCCCCCCCCCCC(=O)O)C(=O)O)NC(=O)[C@H](CCC(N)=O)NC(=O)[C@H](C)NC(=O)[C@@H](NC(=O)[C@H](CCCCN)NC(=O)[C@H](CC(=O)O)NC(=O)[C@H](CC(C)C)NC(=O)C(C)(C)NC(=O)[C@@H](NC(=O)[C@H](CO)NC(=O)[C@H](Cc1ccc(O)cc1)NC(=O)[C@H](CC(=O)O)NC(=O)[C@H](CO)NC(=O)[C@@H](NC(=O)[C@H](Cc1ccccc1)NC(=O)[C@@H](NC(=O)CNC(=O)[C@H](CCC(=O)O)NC(=O)C(C)(C)NC(=O)[C@@H](N)Cc1ccc(O)cc1)[C@@H](C)O)[C@@H](C)O)[C@@H](C)CC)[C@@H](C)CC)C(C)C)C(=O)N[C@@H](C)C(=O)NCC(=O)NCC(=O)N1CCC[C@H]1C(=O)N[C@@H](CO)C(=O)N[C@@H](CO)C(=O)NCC(=O)N[C@@H](C)C(=O)N1CCC[C@H]1C(=O)N1CCC[C@H]1C(=O)N1CCC[C@H]1C(=O)N[C@@H](CO)C(N)=O [TZP, Tirzepatide]","Claudin-1 expressions (mRNA, protein)","[1]; OGD/R + 50 and 100 nM TZP vs. OGD/R, Fig. 7A, B",notably enhanced
same,Claudin-1 expressions (mRNA),[1]; OGD/R + TZP (100 nM) vs. OGD/R,remarkably elevated
same,Claudin-1 expressions (mRNA),[1]; OGD/R + sh-C/EBP-α + TZP (100 nM) vs. OGD/R + TZP,strikingly restrained
same,Claudin-1 levels (mRNA),[2]; MCAO + C/EBP-α-/- + TZP vs. MCAO + TZP,strikingly repressed
same,Claudin-1 levels (mRNA),[2]; MCAO + TZP WT mice vs. MCAO,sharply enhanced
same,"Claudin-1 expressions in cortex tissue (mRNA, protein by immunostaining)","[2]; MCAO + TZP vs. MCAO (markedly diminished), 10 nmol/kg i.p. weekly, 8 weeks",strikingly enhanced
same,"Claudin-1 expressions in cortex tissue (mRNA, protein by immunostaining)",[2]; [7],remarkably enhanced
same,"C/EBP-α levels in cortex tissues (mRNA, protein)","[3]; MCAO + TZP vs. MCAO (markedly decreased), 10 nmol/kg i.p. weekly, 8 weeks",largely enhanced
same,"C/EBP-α levels in cortex tissues (mRNA, protein)",[3]; [7],notably elevated
same,"C/EBP-α levels (mRNA, protein)",[4],largely promoted
same,Infarct volume (% of the ipsilateral hemisphere),[5],18.7 ± 3.1%
same,Behavioral toxicity,[6],no overt behavioral toxicity

# Source: article PMC12285096, “Tirzepatide mitigates Stroke-Induced Blood-Brain barrier disruption by modulating Claudin-1 and C/EBP-α pathways” (Molecular Medicine, 2025)
